The subject of one assay is P. falciparum clone NF54. Particulars: by EC50 or, for ART, RSA, well-characterized susceptibilities; cited from earlier work.
A further assay has as its system P. falciparum clone HB3. Particulars: by EC50 or, for ART, RSA, well-characterized susceptibilities; cited from earlier work.
The subject of the next assay is P. falciparum clone 3D7. Particulars: by EC50 or, for ART, RSA, well-characterized susceptibilities; cited from earlier work.
Assay [1] relates to P. falciparum clone IPC 3445. The arrangement: method as in BEI, Didier Menard. Particulars: by EC50 or, for ART, RSA, well-characterized susceptibilities, ref BEI, Didier Menard; cited from earlier work.
The subject of a further assay is P. falciparum clone Dd2. Particulars: by EC50 or, for ART, RSA, well-characterized susceptibilities; cited from earlier work.
For the next assay, the system named is P. falciparum clone GMC1. To be noted: by EC50 or, for ART, RSA, well-characterized susceptibilities; cited from earlier work.
Another assay relates to P. falciparum clone D6. Particulars: by EC50 or, for ART, RSA, well-characterized susceptibilities; cited from earlier work.
In assay [2] the test system is P. falciparum clone IPC 5202. On the set-up: method as in BEI, Didier Menard. To be noted: by EC50 or, for ART, RSA, well-characterized susceptibilities, ref BEI, Didier Menard; cited from earlier work.
Assay [3] relates to human liver cell line HepG2. As to the kind of experiment: In vitro cytotoxicity assay. In kind it is cell-based. To be noted: for EC50: Homo sapiens, HepG2, read-out: EC50 (µM) (95% CI) HepG2. As for the experimental part: (§1) In preliminary experiments to evaluate cytotoxicity to mammalian cells, the murine leukemia L1210 cell line and the human liver cell line HepG2 were grown under identical conditions alongside Pf 3D7. These were treated with TrtE, the chemotherapeutic methotrexate, and DSM265, an inhibitor of parasite dihydroorotate dehydrogenase ([19]).

In another assay the test system is Pf 3D7. Kind of assay: Parasite growth alongside mammalian cytotoxicity assays. The assay is classed as cell-based. To be noted: Plasmodium falciparum; 3D7, grown under identical conditions alongside mammalian cells; read-out: EC50 (µM) (95% CI) 3D7. As for the experimental part: as §1
The subject of assay [4] is P. falciparum 3D7 asexual blood stages. As to the kind of experiment: Standard 72-hour inhibitor-response (parasite proliferation) assay. In kind it is cell-based. Particulars: Plasmodium falciparum, read-out: 3D7 EC50.
Assay [5] has as its system murine leukemia L1210 cell line. As to the kind of experiment: In vitro cytotoxicity assay. To be noted: for EC50: Mus musculus, L1210, read-out: EC50 (µM) (95% CI) L1210. As for the experimental part: as §1
The test system of another assay is P. falciparum clone V1/S. To be noted: by EC50 or, for ART, RSA, well-characterized susceptibilities; cited from earlier work.
A further assay relates to P. falciparum clone 7G8. To be noted: by EC50 or, for ART, RSA, well-characterized susceptibilities; cited from earlier work.
In assay [6] the test system is P. falciparum clone TM90C2A. Particulars: by EC50 or, for ART, RSA, well-characterized susceptibilities; cited from earlier work.
In assay [7] the test system is P. falciparum clone D10 w/ yDHODH. Particulars: by EC50 or, for ART, RSA, well-characterized susceptibilities; cited from earlier work.
Assay [8] relates to P. falciparum gametocytes. The arrangement: method as in PMID 24206914. To be noted: read-out: gametocytocidal potency of comparator antimalarials; cited from earlier work.

These results are taken from paper PMC10848769, “Tartrolon E, a secondary metabolite of a marine symbiotic bacterium, is a potent inhibitor of asexual and sexual Plasmodium falciparum” (Antimicrobial Agents and Chemotherapy, 2024).

Each structure is given as a SMILES string. Like-named read-outs stand apart in the source and are kept apart here.

Turning to `COc1ncnc(NS(=O)(=O)c2ccc(N)cc2)c1OC` [SDX, sulfadoxine], the “Clone susceptibility to antimalarial (R/S)” value (“Clone susceptibility” for short) in the assay on P. falciparum clone NF54 is on record as “R”; with P. falciparum clone HB3 it was “S”; in the assay on P. falciparum clone 3D7, “R”; in [1], “R”; in the assay on P. falciparum clone Dd2, “R”; with P. falciparum clone GMC1, “R”. Moreover, the “Clone susceptibility” value with P. falciparum clone D6 is given as “S”; in assay [2], “R”.

Consider `Cc1cc(Nc2ccc(S(F)(F)(F)(F)F)cc2)n2nc(C(C)(F)F)nc2n1` [DSM265], for which the “Selectivity index (EC50 of HepG2/EC50 3D7)” value in assay [3] (HepG2 vs 3D7) was 1,980. Also, the EC50 in assay [3] is 9.9 µM; with Pf 3D7, 0.005 µM; in assay [4] (3D7, 72-hour assay), 5 nM; in assay [5], over 20 µM. In assay [5] (L1210 vs 3D7), the “Selectivity index (EC50 of L1210/EC50 3D7)” value is > 4,000.

Regarding `OC(c1cc(C(F)(F)F)nc2c(C(F)(F)F)cccc12)C1CCCCN1` (stereo not drawn) [MQ, mefloquine], the “Clone susceptibility” value in the assay with P. falciparum clone V1/S is recorded as “S”; in the assay on P. falciparum clone NF54, “S”; in the assay on P. falciparum clone HB3 it was “S”; in the assay with P. falciparum clone 7G8, “S”; in assay [6], “R”; with P. falciparum clone 3D7 it was “S”. The “Clone susceptibility” value in [1] is given as “R”; in the assay with P. falciparum clone Dd2, “R”; in the assay with P. falciparum clone GMC1, “S”; in the assay on P. falciparum clone D6 it was “S”; in assay [7], “S”; in assay [2], “R”.

With `CCN(CC)CCCC(C)Nc1ccnc2cc(Cl)ccc12` (stereo not drawn) [chloroquine], the “Clone susceptibility” value in the assay on P. falciparum clone V1/S is listed as “R”; in the assay with P. falciparum clone NF54, “S”; in the assay on P. falciparum clone HB3 it was “S”; in the assay on P. falciparum clone 7G8, “R”; in [6], “R”; in the assay on P. falciparum clone 3D7, “S”. Further, the “Clone susceptibility” value in assay [1] was “R”; in the assay with P. falciparum clone Dd2, “R”; with P. falciparum clone GMC1, “R”; with P. falciparum clone D6, “S”; in [7] it was “S”; in assay [2], “R”. Also, the EC50 in assay [4] (3D7, 72 h) turned out to be 6 nM.

Consider `COc1ccc2nc3cc(Cl)ccc3c(Nc3cc(CN4CCCC4)c(O)c(CN4CCCC4)c3)c2n1` [pyronaridine], for which the EC50 in assay [8] is 4260 nM.

Turning to `CCc1nc(N)nc(N)c1-c1ccc(Cl)cc1` [pyrimethamine], the “Clone susceptibility” value with P. falciparum clone V1/S is “R”; with P. falciparum clone NF54, “S”; with P. falciparum clone HB3, “R”; with P. falciparum clone 7G8, “R”; in assay [6] it was “R”; in the assay with P. falciparum clone 3D7, “S”. The “Clone susceptibility” value in [1] is reported as “R”; in the assay on P. falciparum clone Dd2 it was “R”; in the assay with P. falciparum clone GMC1, “R”; with P. falciparum clone D6 it was “S”; in [2], “R”. Also, the EC50 in assay [4] (3D7, 72-hour assay) stood at 19 nM.

For `Cc1cc(Nc2ccc3ccccc3c2)n2ncnc2n1` [DSM1], the “Clone susceptibility” value (in the assay on P. falciparum clone V1/S; with P. falciparum clone NF54; with P. falciparum clone HB3; in the assay with P. falciparum clone 7G8; in assay [6]; in the assay on P. falciparum clone 3D7) was “S” each time. For the same compound, the “Clone susceptibility” value in assay [1] is on record as “S”; in the assay with P. falciparum clone Dd2, “S”; in the assay with P. falciparum clone GMC1, “S”; in the assay on P. falciparum clone D6 it was “S”; in assay [7] it was “R”; in assay [2] it was “S”.

Regarding `C=C[C@H]1C[N@@]2CC[C@H]1C[C@H]2[C@H](O)c1ccnc2ccc(OC)cc12` [QN, quinine], the “Clone susceptibility” value is “R” in the assay on P. falciparum clone V1/S; “S” in the assay with P. falciparum clone NF54; “S” with P. falciparum clone HB3; “R” in the assay with P. falciparum clone 7G8; “S” in the assay on P. falciparum clone 3D7; “R” in assay [1]. Besides, the “Clone susceptibility” value with P. falciparum clone Dd2 was “R”; with P. falciparum clone D6 it was “S”; in assay [2], “R”.

`O=C1C(O)=C([C@H]2CC[C@H](c3ccc(Cl)cc3)CC2)C(=O)c2ccccc21` [atovaquone]: the “Clone susceptibility” value (in the assay with P. falciparum clone V1/S; in the assay on P. falciparum clone NF54; in the assay on P. falciparum clone HB3; with P. falciparum clone 7G8; in [6]; with P. falciparum clone 3D7) was “S” throughout. In addition, the “Clone susceptibility” value in assay [1] is “S”; in the assay on P. falciparum clone Dd2, “S”; in the assay on P. falciparum clone GMC1, “S”; in the assay with P. falciparum clone D6, “S”; in [7] it was “R”; in assay [2], “S”. Further, the EC50 in assay [4] (3D7, 72-hour assay) came out at 1 nM.

Turning to `COc1cc(NC(C)CCCN)c2ncccc2c1` (stereo not drawn) [primaquine], in assay [8], the EC50 was over 40000 nM.

Regarding `C[C@@H]1CC[C@H]2[C@@H](C)C(=O)O[C@@H]3O[C@@]4(C)CC[C@@H]1[C@]32OO4` [artemisinin], the “Clone susceptibility” value (in the assay on P. falciparum clone V1/S; in the assay with P. falciparum clone NF54; in the assay on P. falciparum clone HB3; in the assay on P. falciparum clone 7G8; in [6]; in the assay on P. falciparum clone 3D7) was “S” throughout. Further, the “Clone susceptibility” value in assay [1] was “R”; with P. falciparum clone Dd2, “S”; with P. falciparum clone GMC1, “S”; with P. falciparum clone D6 it was “S”; in [7], “S”; in assay [2], “R”. For the same compound, the EC50 in [4] (3D7, 72-hour assay) amounted to 6 nM.

On to `CC1(C)N=C(N)N=C(N)N1c1ccc(Cl)cc1` [CG, cycloguanil], for which the “Clone susceptibility” value with P. falciparum clone V1/S was “R”; in the assay with P. falciparum clone NF54, “S”; with P. falciparum clone HB3, “S”; with P. falciparum clone 7G8 it was “R”; in [6], “R”; in the assay with P. falciparum clone 3D7, “S”. Also, the “Clone susceptibility” value is on record as “R” in assay [1]; “R” in the assay with P. falciparum clone Dd2; “R” in the assay on P. falciparum clone GMC1; “S” with P. falciparum clone D6; “R” in [2].

Take `CN(Cc1cnc2nc(N)nc(N)c2n1)c1ccc(C(=O)N[C@@H](CCC(=O)O)C(=O)O)cc1` [Methotrexate]: the EC50 is over 1 µM in assay [3], 0.047 µM with Pf 3D7 and 0.012 µM in [5].
